# Experimental data reported in ChEMBL document CHEMBL6083238, “Design, synthesis and biological evaluation of novel benzocoumarin derivatives as potent inhibitors of MAO-B activity” (Bioorg Med Chem Lett, 2024).
# How the values were obtained:
# [1] = target: T1, MAO-A (amine oxidase [flavin-containing] A) (Homo sapiens, UniProt P21397); test: in vitro; conditions: human MAO-A enzyme, probe p-tyramine
# T1 sequence (P21397 whole entry): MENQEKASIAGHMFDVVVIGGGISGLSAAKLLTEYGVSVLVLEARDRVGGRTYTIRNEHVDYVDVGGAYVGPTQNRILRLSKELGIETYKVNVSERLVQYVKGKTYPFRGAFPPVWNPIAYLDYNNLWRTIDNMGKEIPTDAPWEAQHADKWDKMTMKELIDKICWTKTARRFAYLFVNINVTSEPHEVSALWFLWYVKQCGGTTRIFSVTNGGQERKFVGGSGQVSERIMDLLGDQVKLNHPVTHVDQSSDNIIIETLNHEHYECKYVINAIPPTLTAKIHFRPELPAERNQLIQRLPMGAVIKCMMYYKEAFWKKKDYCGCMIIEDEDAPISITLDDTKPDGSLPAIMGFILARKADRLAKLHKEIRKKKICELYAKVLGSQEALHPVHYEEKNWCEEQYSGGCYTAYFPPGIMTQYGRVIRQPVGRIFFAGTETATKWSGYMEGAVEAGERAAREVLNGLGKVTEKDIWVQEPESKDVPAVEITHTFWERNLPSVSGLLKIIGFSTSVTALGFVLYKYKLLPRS
# Description: Inhibition of human MAO-A using p-tyramine as substrate at 100 uM by amplex red staining based fluorometric analysis relative to control
# [2] = target: T2, Amine oxidase [flavin-containing] B (Homo sapiens, UniProt P27338)
# T2 sequence (P27338 whole entry): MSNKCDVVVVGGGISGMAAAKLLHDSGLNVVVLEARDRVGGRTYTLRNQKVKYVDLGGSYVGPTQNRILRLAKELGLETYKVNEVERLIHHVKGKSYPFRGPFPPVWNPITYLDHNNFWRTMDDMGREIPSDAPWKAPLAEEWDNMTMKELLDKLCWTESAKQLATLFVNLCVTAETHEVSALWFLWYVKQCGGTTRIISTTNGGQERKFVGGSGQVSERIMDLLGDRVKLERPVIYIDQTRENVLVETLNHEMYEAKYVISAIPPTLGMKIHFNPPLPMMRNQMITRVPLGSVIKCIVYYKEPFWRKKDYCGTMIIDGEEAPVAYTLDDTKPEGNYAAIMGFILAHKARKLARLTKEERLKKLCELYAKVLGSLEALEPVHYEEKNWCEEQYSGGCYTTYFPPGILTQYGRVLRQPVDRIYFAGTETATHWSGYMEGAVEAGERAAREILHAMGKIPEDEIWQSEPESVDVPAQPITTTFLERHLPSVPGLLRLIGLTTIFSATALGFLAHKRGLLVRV
# Description: Inhibition of human MAO-B using p-tyramine as substrate by amplex red staining based fluorometric analysis
# [3] = target: T3, Amine oxidase [flavin-containing] A (Homo sapiens, UniProt P21397)
# T3 sequence (P21397 whole entry): T1 sequence (P21397 whole entry)
# Description: Inhibition of human MAO-A using p-tyramine as substrate by amplex red staining based fluorometric analysis
Structure (SMILES),inhibition at 100 µM [1],IC50 [2],IC50 [3]
COc1ccc(-c2cc3cc4ccccc4cc3oc2=O)cc1,3.85%,48.1 µM,–
CC(=O)Oc1ccc(-c2cc3cc4ccccc4cc3oc2=O)cc1OC(C)=O,–,54.4 µM,97.2 µM
COc1ccc(-c2cc3ccc4ccccc4c3oc2=O)cc1,15.3%,–,–

# Continued, values first:
inhibition at 100 µM [1],IC50 [2],IC50 [3],Structure (SMILES)
–,13.9 µM,78.3 µM,CC(=O)Oc1ccc(-c2cc3ccc4ccccc4c3oc2=O)cc1OC(C)=O
36.6%,1.41 µM,–,COc1ccc(-c2cc3cc4ccccc4cc3oc2=O)cc1OC
24%,0.241 µM,–,COc1ccc(-c2cc3ccc4ccccc4c3oc2=O)cc1OC
